According to patent US8088605B2, “Exopolysaccharides delivery system for active molecules” (Technologies Biolactics Inc., priority 2002, dated 2012):
“Also recorded” adds a separate entry of the source. One block for each molecule: values may come before it.

Tests used:
[1] = system: IEC-6 rat normal small intestine epithelial cells; experiment: Survival of IEC-6 cells with 5-Fu and EPS, Alamar Blue; assay type: cell-based; design: unit not given here; settings: three days exposure
Description: (§1) The in vitro toxicity of the exopolysaccharide micelles was tested by incubating the micelles with a wide range of cell lines for 4-hour, 8-hour, 72-hour and 96-hour periods. The XTT™ or Alamar Blue™ assays were used to quantify the survival rates in the presence of the exopolysaccharide micelles. The capability of the exopolysaccharide to deliver an active molecule was first tested in vitro using 5-Fluorouracil (5-Fu) as a model active molecule. […] The 5-Fu/exopolysaccharide formulation was incubated with either B16F10 (murine skin melanoma), Caco-2 (human colon adenocarcinoma) or IEC-6 (rat epithelial small intestine) cells over 72-hour to 96-hour. Vital dyes (XTT or Alamar Blue) were added to supernatants for a period of 4 hours. Absorbance values were collected and plotted to evaluate the survival rate of the cells to the treatment.
(§2) Caco-2, IEC-6 and melanocytes B16 cells were cultured in DMEM supplemented with 10% FBS. […] The cells were grown in a CO2 incubator for 4 extra days. Cell survival was assessed with XTT™ according to manufacturers recommendation. […] The data are as follows:
[NB073]. Percentages of EPS are expressed in (w/v).

[2] = system: Caco-2 human colon adenocarcinoma cells in proliferation; experiment: Survival of Caco-2 cells in proliferation with 5-Fu and EPS, XTT; assay type: cell-based; settings: four days exposure
Description: as §1, §2
(§3) Percentages of EPS are expressed in (w/v).

[3] = system: Caco-2 human colon adenocarcinoma cells differentiated; experiment: Survival of differentiated Caco-2 cells with 5-Fu and EPS, XTT; assay type: cell-based; settings: four days exposure
Description: as §1, §2, §3

[4] = system: B16F10 murine skin melanoma cells; experiment: Survival of B16F10 cells with 5-Fu and EPS, XTT; assay type: cell-based; settings: four days exposure
Description: as §1, §2, §3

[5] = system: B16 cells; experiment: Mice grafted i.p. with B16 cells treated with 5 FU/EPS; assay type: in vivo, Balb/c mice
Description: Tumor cells were trypsinized and washed 3 times with PBS. Cells (1×10E6) were injected i.p. to Balb/c mice to induce a cancer in the peritoneal cavity. […] This highlighting again that EPS are not inert and may contribute to the therapeutic index.

[6] = Fluorescein pharmacokinetic in rats, oral; assay type: in vivo, Wistar female rats; design: unit not given here; settings: fluorescein 1 mg/kg oral
Description: Fluorescein (FL) pharmacolinetic on unfasten Wistar female rats of 200 g and 8 weeks of age. Fluorescein concentration is 1 mg/kg. […] Fluorescein is added to the latter solutions and vortexed. Formulations are fed to the animals with a canula. 200 μl blood samples are collected through the jugular vein every 30 minutes for 2.5 hours. A final bleeding is made at 3.5 h. Plasma are collected immediately after centrifugation (10 min @ 1300 g). Plasma are frozen on dry ice until further analysis: 50 μl of plasma are diluted in 550 μl of saline 0.7% (w/v) and analyzed with a Varian Eclipse Spectrofluorometer (Excitation: 495 nm Emission: 515 nm). Concentrations were determined on a fluorescein standard curve (FL diluted in saline 0.7% and 50 μl of normal serum as in the sample analysis).

[7] = system: B16 cells; experiment: Intramuscular B16 tumor formation after i.m. injection of paclitaxel-treated cells; assay type: in vivo; settings: mice with tumor / mice in group; cells treated 3 hrs before i.m. injection
Description: (§4) Cells (50000 cells per 50 μl injections) for a concentration of 10^6 cells per ml. The remaining of the test was performed as follows: • Cells from 1XT75 (80% confluence) are trypsinized with 2 ml trypsin, diluted in 12 ml media, spun down, rinsed once in 5 ml PBS, and resuspended in 2 ml PBS. Cells are then counted and concentration adjusted to 10^6 cells per ml. • P1 treatment: Add 200 μl P1 stock and […] of cell suspension (10^6 cells) and incubate at room temperature 3 hrs. Final Paclitaxel=1 mM, DMSO=1%. • P2 treatment: Add 200 μl P2 stock to 1.8 ml of cell suspension (10^6 cells) and incubate at room temperature 3 hrs. […] No growth was observed from either group after 2 weeks in culture.

[8] = system: B16 cells; experiment: Growth in tissue culture of paclitaxel-treated B16 cells; assay type: cell-based; settings: replated after treatment, 2 weeks in culture
Description: as §4

[9] = Rhodamine 123 pharmacokinetic in rats, oral; assay type: in vivo, Wistar female rats; settings: 5 mg/kg oral
Description: The pharmacokinetic of Rhodamine 123 (R123) was performed on unfasten Wistar female rats of 200 g and 8 weeks of age. Rhodamine concentration is 5 mg/kg. […] Rhodamine is added to the latter solutions and vortexed. Formulations are fed to the animals with a canula and 200 μl blood samples are collected through the jugular vein every hour for 4 hours (plus 1 sample at 0.5 h). Plasma are collected immediately after centrifugation (10 min @ 13000 g). Plasma are frozen on dry ice until further analysis: 50 μl of plasma are diluted in 550 μl of saline 0.7% (w/v) and analyzed with a Varian Eclipse™ Spectrofluorometer (Excitation: 505 nm Emission: 540 nm). Concentrations were determined on a Rhodamine 123 standard curve (R123 diluted in saline 0.7% and 50 μl of normal serum as in the sample analysis).

Molecule: O=c1[nH]cc(F)c(=O)[nH]1 [5-Fu alone, 5-Fluorouracil]
- Survival of IEC-6 cells ([1]; Table 5, 5-Fu 5 μg/ml): 16.9 ± 6.4
- Survival of IEC-6 cells ([1]; Table 5, 5-Fu 50 μg/ml): 28.0 ± 4.6
- Survival of IEC-6 cells ([1]; Table 5, 5-Fu 250 μg/ml): 35.4 ± 8.2
- Survival of IEC-6 cells ([1]; Table 5, 5-Fu 500 μg/ml): 33.4 ± 3.5
- Survival of IEC-6 cells ([1]; Table 6, 5-Fu 1 μg/ml): 78.0 ± 3.0
- Survival of IEC-6 cells ([1]; Table 6, 5-Fu 10 μg/ml): 75.4 ± 2.9
- Survival of IEC-6 cells ([1]; Table 6, 5-Fu 50 μg/ml): 81.8 ± 2.1
- Survival of IEC-6 cells ([1]; Table 6, 5-Fu 100 μg/ml): 80.2 ± 0.9
- Survival of Caco-2 cells in proliferation ([2]; 5-Fu 1 μg/ml): 74.1 ± 1.9
- Survival of Caco-2 cells in proliferation ([2]; 5-Fu 10 μg/ml): 78.6 ± 2.4
- Survival of Caco-2 cells in proliferation ([2]; 5-Fu 50 μg/ml): 80.3 ± 1.8
- Survival of Caco-2 cells in proliferation ([2]; 5-Fu 100 μg/ml): 52.6 ± 4.8
- Survival of Caco-2 cells differentiated ([3]; 5-Fu 1 μg/ml): 105.7 ± 4.2
- Survival of Caco-2 cells differentiated ([3]; 5-Fu 10 μg/ml): 85.6 ± 8.8
- Survival of Caco-2 cells differentiated ([3]; 5-Fu 50 μg/ml): 99.6 ± 6.8
- Survival of Caco-2 cells differentiated ([3]; 5-Fu 100 μg/ml): 78.1 ± 0.7
- Survival of B16F10 cells ([4]; 5-Fu 1 μg/ml): 62.6 ± 6.6
- Survival of B16F10 cells ([4]; 5-Fu 10 μg/ml): 65.4 ± 10.4
- Survival of B16F10 cells ([4]; 5-Fu 50 μg/ml): 54.9 ± 8.9
- Survival of B16F10 cells ([4]; 5-Fu 100 μg/ml): 38.8 ± 8.5
- Tumor-free mice ([5]; day 0): 100%
- Tumor-free mice ([5]; day 15, 5 FU 100 mg/kg, EPS 0.1% w/v, treatment after 4 days): 62.5%
- Tumor-free mice ([5]; day 29, 5 FU 100 mg/kg, EPS 0.1% w/v, treatment after 4 days): 12.5%
- Tumor-free mice ([5]; day 44, 5 FU 100 mg/kg, EPS 0.1% w/v, treatment after 4 days): 12.5%

- Fluorescein concentration in plasma ([6]; time 0.0 h): 37.10
- Fluorescein concentration in plasma ([6]; time 0.5 h): 218.30
- Fluorescein concentration in plasma ([6]; time 1.0 h): 145.95
- Fluorescein concentration in plasma ([6]; time 1.5 h): 75.25
- Fluorescein concentration in plasma ([6]; time 2.0 h): 74.48
- Fluorescein concentration in plasma ([6]; time 2.5 h): 71.74
- Fluorescein concentration in plasma ([6]; time 3.5 h): 54.63
Molecule: O=C1OC2(c3ccc(O)cc3Oc3cc(O)ccc32)c2ccccc21 [FL-Water, Fluorescein]

Molecule: CC(=O)O[C@H]1C(=O)[C@@]2(C)[C@H]([C@H](OC(=O)c3ccccc3)[C@]3(O)C[C@H](OC(=O)[C@H](O)[C@@H](NC(=O)c4ccccc4)c4ccccc4)C(C)=C1C3(C)C)[C@]1(OC(C)=O)CO[C@@H]1C[C@@H]2O [P1, Paclitaxel]
- Intramuscular tumor formation [7]: 12/15
- Growth in tissue culture [8]: No growth; also recorded: negative

- Rhodamine 123's concentration in plasma ([9]; time 0.0 h): 2.2 ± 2.2 ng/mL
- Rhodamine 123's concentration in plasma ([9]; time 0.5 h): 20.4 ± 2.2 ng/mL
- Rhodamine 123's concentration in plasma ([9]; time 1.0 h): 20.9 ± 2.6 ng/mL
- Rhodamine 123's concentration in plasma ([9]; time 2.0 h): 15.4 ± 2.0 ng/mL
- Rhodamine 123's concentration in plasma ([9]; time 3.0 h): 10.9 ± 1.4 ng/mL
- Rhodamine 123's concentration in plasma ([9]; time 4.0 h): 11.2 ± 1.8 ng/mL
Molecule: Rhodamine 123 [R123 - Water]
